Consider 18 compounds from PubChem BioAssay (NCI).

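Exposure lasted 48 hours, with cells grown in 96-well plates and compounds tested at five concentrations. TGI marks complete inhibition of growth.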

Some test systems named below: DMS 114 small cell lung; SNB-78 CNS; RXF-631 renal; KM20L2 colon; DMS 273 small cell lung; HOP-18 NSCLC; XF 498 CNS; LXFL 529 NSCLC; P388 leukemia; SN12K1 renal.
Common to all, as to test: NCI tumour cell line growth inhibition, 48 h

On to `CC(C)(C)CC(C)(C)c1ccc(OCCOCC[N+](C)(C)Cc2ccccc2)cc1`, for which the TGI with DMS 114 small cell lung turned out to be 4.02 µM; with SNB-78 CNS, 4.26 µM; in the assay on RXF-631 renal it was 34.2 µM; in the assay with KM20L2 colon, 18.8 µM; in the assay on DMS 273 small cell lung, 2.57 µM; in the assay with HOP-18 NSCLC, 7.32 µM.
With `COC(=O)n1c(C[P+](c2ccccc2)(c2ccccc2)c2ccccc2)cc2ccccc21`, the TGI in the assay on DMS 114 small cell lung amounted to 9.29 µM; in the assay with SNB-78 CNS, 17.9 µM; with XF 498 CNS, 6.09 µM; in the assay with KM20L2 colon it was 10.7 µM; in the assay with LXFL 529 NSCLC, 3.73 µM; with DMS 273 small cell lung it was 6.25 µM.
Take `CC(=O)Nc1ccc(C(=O)N2N=C(C)/C(=C/c3ccc(O)cc3)C2=O)cc1`: the TGI in the assay with DMS 114 small cell lung, in the assay on SNB-78 CNS, in the assay with XF 498 CNS and in the assay with DMS 273 small cell lung was above 100 µM in each case.
With `O=S1(=O)CCN(c2ccccc2CC(c2c[nH]c3ccccc23)c2c[nH]c3ccccc23)CC1`, the TGI in the assay with DMS 114 small cell lung was above 100 µM; with SNB-78 CNS, 74.3 µM; with KM20L2 colon it was 27.8 µM; in the assay with LXFL 529 NSCLC, 25.7 µM; with DMS 273 small cell lung, 37.5 µM; with HOP-18 NSCLC, 32.7 µM.
Regarding `Nc1c(N=Nc2ccc(-c3ccc(N=Nc4c(O)ccc5cc(S(=O)(=O)O)cc(S(=O)(=O)O)c45)cc3)cc2)c(S(=O)(=O)O)cc2cc(S(=O)(=O)O)c(N=Nc3ccccc3)c(O)c12`, the TGI with DMS 114 small cell lung, in the assay with SNB-78 CNS, with XF 498 CNS, in the assay on P388 leukemia, in the assay on SN12K1 renal and in the assay with DMS 273 small cell lung was above 100 µM in each case. This compound also gave a TGI in the assay on HOP-18 NSCLC above 100 µM.
With `CCOC1=C2NC(Cc3ccc(F)cc3)=NC2C(=O)c2ccccc21` (configuration not stated), the TGI in the assay on DMS 114 small cell lung was 61.9 µM; in the assay on SNB-78 CNS, above 100 µM; with RXF-631 renal it was above 100 µM; in the assay with KM20L2 colon it was above 100 µM; with LXFL 529 NSCLC, 77.3 µM; in the assay with DMS 273 small cell lung, 81.3 µM.
Take `c1ccc(OCCSCCCCCCCCCCSCCOc2ccccc2)cc1`: the TGI in the assay on DMS 114 small cell lung, in the assay on SNB-78 CNS, in the assay with RXF-631 renal, with KM20L2 colon, in the assay on LXFL 529 NSCLC and in the assay with HOP-18 NSCLC was above 100 µM each time.
As to `C/C(=C\Cc1cc(O)ccc1O)CCc1c(C)cc(O)c(C=O)c1C`, the TGI is 31.2 µM in the assay on DMS 114 small cell lung; 45.2 µM in the assay with XF 498 CNS; above 100 µM with KM20L2 colon; 30.2 µM in the assay on LXFL 529 NSCLC; 55.4 µM in the assay on DMS 273 small cell lung; 53.4 µM in the assay on HOP-18 NSCLC.
Consider `Cc1cc2n([O-])cccc-2[n+](=O)c1`, for which the TGI with DMS 114 small cell lung, in the assay with SNB-78 CNS, with XF 498 CNS, in the assay on KM20L2 colon, with LXFL 529 NSCLC and with DMS 273 small cell lung was above 100 µM throughout.
Turning to `COC(=O)CC(NC(=O)OCc1ccccc1)C(C(=O)OCc1ccccc1)C1(C)OCCO1` (configuration not stated), the TGI was 82.6 µM in the assay on DMS 114 small cell lung; 42.3 µM in the assay with XF 498 CNS; above 100 µM in the assay with RXF-631 renal; above 100 µM in the assay with KM20L2 colon; 73 µM with LXFL 529 NSCLC; above 100 µM in the assay on DMS 273 small cell lung.
As to `CC1(C)COC(c2c(-c3ccccc3)noc2CS(=O)c2ccccc2)=N1` (configuration not stated), the TGI with DMS 114 small cell lung is 99.1 µM; with SNB-78 CNS it was above 100 µM; in the assay on KM20L2 colon it was above 100 µM; in the assay with LXFL 529 NSCLC it was above 100 µM; with DMS 273 small cell lung it was above 100 µM; in the assay on HOP-18 NSCLC, 86.4 µM.
As to `OC12CCCCCC1(N1CCOCC1)c1ccccc12` (configuration not stated), the TGI in the assay on DMS 114 small cell lung, in the assay with SNB-78 CNS, with KM20L2 colon, in the assay with LXFL 529 NSCLC, in the assay with DMS 273 small cell lung and with HOP-18 NSCLC was above 100 µM each time.
With `CC(c1ccccc1)N1CC(C)(c2ccccc2)N(O)C(c2ccccc2)C1C` (configuration not stated), the TGI was 45.1 µM in the assay on DMS 114 small cell lung; 89.9 µM with SNB-78 CNS; 82 µM in the assay with RXF-631 renal; 44.7 µM in the assay with KM20L2 colon; 37.3 µM in the assay on LXFL 529 NSCLC; above 100 µM with DMS 273 small cell lung. The TGI in the assay on HOP-18 NSCLC is 51.2 µM.
`O=c1c2c(nc3n1CCC3)sc1c(O)c(Br)ccc12`: the TGI was 32.4 µM in the assay with DMS 114 small cell lung; above 100 µM in the assay with SNB-78 CNS; 36.8 µM in the assay with XF 498 CNS; 35.9 µM with KM20L2 colon; 31 µM in the assay with DMS 273 small cell lung; above 100 µM with HOP-18 NSCLC.
Consider `Cc1cc2occ(-c3ccc(Cl)cc3)c2c(=O)o1`, for which the TGI in the assay on DMS 114 small cell lung, in the assay with SNB-78 CNS, with RXF-631 renal, with KM20L2 colon, in the assay on LXFL 529 NSCLC and in the assay with DMS 273 small cell lung was above 100 µM each time. In addition, the TGI in the assay with HOP-18 NSCLC is above 100 µM.
Turning to `Cc1cc(=O)[nH]c(NNC(C#N)c2ccc([N+](=O)[O-])cc2)n1` (configuration not stated), the TGI in the assay with DMS 114 small cell lung, in the assay with SNB-78 CNS, with KM20L2 colon, in the assay with LXFL 529 NSCLC, with DMS 273 small cell lung and in the assay on HOP-18 NSCLC was above 100 µM throughout.
Turning to `Cc1cc([N+](=O)[O-])c(S(=O)(=O)c2ccccc2)c([N+](=O)[O-])c1`, the TGI is 9.63 µM in the assay on DMS 114 small cell lung; 48.6 µM in the assay with SNB-78 CNS; 27.6 µM in the assay on XF 498 CNS; above 100 µM in the assay with RXF-631 renal; 37.3 µM in the assay on KM20L2 colon; 10.6 µM in the assay on LXFL 529 NSCLC. The TGI in the assay with DMS 273 small cell lung stood at 32.1 µM; in the assay on HOP-18 NSCLC, 29.6 µM.
Take `CCN(CC)CCCCC1CCN(CC(=O)N2c3ccccc3NC(=O)CC2C)CC1` (configuration not stated): the TGI in the assay on DMS 114 small cell lung, in the assay on SNB-78 CNS, in the assay on RXF-631 renal, with KM20L2 colon, with LXFL 529 NSCLC and in the assay on DMS 273 small cell lung was above 100 µM in each case. The compound further came in with a TGI with HOP-18 NSCLC above 100 µM.
